# Results: BindingDB's records for doi:10.1021/cb500018s (Johns Hopkins University, 2014)
# Structures can show the parent of a compound that is named as a salt.
# Biological target: T1, Amine oxidase [flavin-containing] A (Homo sapiens, UniProt P21397)
# T1 sequence (P21397 whole entry): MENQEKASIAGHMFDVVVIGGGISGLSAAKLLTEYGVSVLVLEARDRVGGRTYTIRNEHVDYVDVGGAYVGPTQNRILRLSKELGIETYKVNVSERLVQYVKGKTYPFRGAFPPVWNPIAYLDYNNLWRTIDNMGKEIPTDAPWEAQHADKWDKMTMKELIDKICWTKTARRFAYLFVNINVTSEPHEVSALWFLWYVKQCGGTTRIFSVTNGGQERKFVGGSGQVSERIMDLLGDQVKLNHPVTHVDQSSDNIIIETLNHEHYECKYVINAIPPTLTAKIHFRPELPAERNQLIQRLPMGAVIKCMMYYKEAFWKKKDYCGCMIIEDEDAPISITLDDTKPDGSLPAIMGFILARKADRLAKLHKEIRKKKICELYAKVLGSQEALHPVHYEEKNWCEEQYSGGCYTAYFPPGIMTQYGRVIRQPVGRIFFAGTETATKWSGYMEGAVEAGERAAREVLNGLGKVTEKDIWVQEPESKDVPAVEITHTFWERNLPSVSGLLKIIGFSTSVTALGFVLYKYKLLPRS
# Assay: MAO-A/B Activity and Inhibition Assay
# Conditions: pH 7.5
row,Ki [nM],SMILES
1,2600,NNCCc1ccc(NC(=O)CCCc2ccccc2)cc1 [N-[4-(2-Hydrazinylethyl)phenyl]-4-phenylbutanamide dihydrochloride salt (12d)]

# Biological target: T2, Amine oxidase [flavin-containing] B (Homo sapiens, UniProt P27338)
# T2 sequence (P27338 whole entry): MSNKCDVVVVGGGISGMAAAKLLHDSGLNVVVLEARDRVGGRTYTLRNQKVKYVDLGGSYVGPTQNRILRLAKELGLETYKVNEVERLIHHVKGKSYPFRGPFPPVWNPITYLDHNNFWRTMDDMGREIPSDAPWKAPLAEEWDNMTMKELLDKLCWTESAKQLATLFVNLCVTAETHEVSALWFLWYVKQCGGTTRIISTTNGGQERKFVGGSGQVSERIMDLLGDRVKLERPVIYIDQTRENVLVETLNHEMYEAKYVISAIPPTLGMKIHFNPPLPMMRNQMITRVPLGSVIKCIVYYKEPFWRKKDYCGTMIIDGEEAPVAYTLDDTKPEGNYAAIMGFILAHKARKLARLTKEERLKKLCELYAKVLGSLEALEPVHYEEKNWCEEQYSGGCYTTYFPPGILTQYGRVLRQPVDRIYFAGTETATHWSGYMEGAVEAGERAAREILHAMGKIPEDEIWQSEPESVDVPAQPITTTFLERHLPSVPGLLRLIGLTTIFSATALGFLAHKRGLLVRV
# Assay: MAO-A/B Activity and Inhibition Assay
# Conditions: pH 7.5
row,Ki [µM],SMILES
1,6.5,NNCCc1ccc(NC(=O)CCCc2ccccc2)cc1 [N-[4-(2-Hydrazinylethyl)phenyl]-4-phenylbutanamide dihydrochloride salt (12d)]

# Biological target: Lysine-specific histone demethylase 1A (Homo sapiens, UniProt O60341)
# Assay: GST-LSD1 Enzymatic Assays
# Conditions: pH 7.5
row,Ki [nM],SMILES
1,204,CS(=O)(=O)Oc1ccccc1CCC(=O)Nc1ccc(CCNN)cc1 [2-(3-{[4-(2-Hydrazinylethyl)phenyl]amino}-3-oxopropyl)phenyl methanesulfonate oxalate salt (12j)]
2,223,CS(=O)(=O)Oc1cccc(CCC(=O)Nc2ccc(CCNN)cc2)c1 [3-(3-{[4-(2-Hydrazinylethyl)phenyl]amino}-3-oxopropyl)phenyl methanesulfonate oxalate salt (12k)]
3,156,NNCCc1ccc(NC(=O)CCCc2ccc(Cl)cc2)cc1 [4-(4-Chlorophenyl)-N-[4-(2-hydrazinylethyl)phenyl]butanamide sulfate salt (12f)]
4,44000,NNCCOc1ccccc1 [(2-Phenoxyethyl)hydrazine dihydrochloride salt (10a)]
5,100,NNCCc1ccc(NC(=O)/C=C/c2ccccc2)cc1 [(2E)-N-[4-(2-Hydrazinylethyl)phenyl]-3-phenylprop-2-enamide sulfate salt (13)]
6,12000,NNCCCOc1ccccc1 [(3-Phenoxypropyl)hydrazine dihydrochloride salt (10b)]
7,5000,NNCCCc1ccccc1 [(3-Phenylpropyl)hydrazine dihydrochloride salt (9c)]
8,22000,NNCCCCc1ccccc1 [(4-Phenylbutyl)hydrazine dihydrochloride salt (9h)]
9,1600,NNCCc1ccc(N(Cc2ccccc2)C(=O)CCCc2ccccc2)cc1 [N-Benzyl-N-[4-(2-hydrazinylethyl)phenyl]-4-phenylbutanamide oxalate salt (12m)]
10,370,NNCCc1ccc(NC(=O)Cc2ccccc2)cc1 [N-[4-(2-Hydrazinylethyl)phenyl]-2-phenylacetamide dihydrochloride salt (12b)]
11,210,NNCCc1ccc(NC(=O)CCc2c[nH]c3ccccc23)cc1 [N-[4-(2-Hydrazinylethyl)phenyl]-3-(1H-indol-3-yl)propanamide sulfate salt (15a)]
12,260,NNCCc1ccc(NC(=O)CCc2ccccc2)cc1 [N-[4-(2-Hydrazinylethyl)phenyl]-3-phenylpropanamide sulfate salt (12c)]
13,207,COc1ccc(CCCC(=O)Nc2ccc(CCNN)cc2)cc1 [N-[4-(2-Hydrazinylethyl)phenyl]-4-(4-methoxyphenyl)butanamide sulfate salt (12h)]
14,282,NNCCc1ccc(NC(=O)CCCc2ccc([N+](=O)[O-])cc2)cc1 [N-[4-(2-Hydrazinylethyl)phenyl]-4-(4-nitrophenyl)butanamide sulfate salt (12i)]
15,260,NNCCc1ccc(NC(=O)CCCCc2ccccc2)cc1 [N-[4-(2-Hydrazinylethyl)phenyl]-5-phenylpentanamide oxalate salt (12e)]
16,2000,CN(C(=O)CCCc1ccccc1)c1ccc(CCNN)cc1 [N-[4-(2-Hydrazinylethyl)phenyl]-N-methyl-4-phenylbutanamide oxalate salt (12l)]
17,280,NNCCc1ccc(NC(=O)c2ccccc2)cc1 [N-[4-(2-Hydrazinylethyl)phenyl]benzamide dihydrochloride salt (12a)]
18,8000,COc1ccc(CCCNN)cc1 [[3-(4-Methoxyphenyl)propyl]hydrazine dihydrochloride salt (9e)]
19,900,NNCCCc1ccc(OCc2ccccc2)cc1 [{3-[4-(Benxyloxy)phenyl]propyl}hydrazine dihydrochloride salt (14)]
